Measured values reported in PubChem BioAssay (NCI).
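Protocol summary: plate cells (96-well), add compound at 5 concentrations, incubate 48 h, interpolate endpoints linearly. Abbreviation: GI50, concentration required for 50% inhibition of growth. Definition used: TGI = concentration required for complete inhibition of growth.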

Legend:
Test in all cases: NCI anticancer screen, dose series, 48 h
[1] = tested on: BT-549 breast
[2] = tested on: HS 578T breast
[3] = tested on: MALME-3M melanoma
[4] = tested on: MCF7 breast
[5] = tested on: MDA-MB-435
[6] = tested on: MDA-N
[7] = tested on: NCI-H522 lung
[8] = tested on: NCI/ADR-RES ovarian
[9] = tested on: OVCAR-3 ovarian
[10] = tested on: RPMI-8226 leukemia
[11] = tested on: T-47D breast

## C/C(=N\NC(=S)N1CCOCC1)c1nc2ncccc2[nH]1
[1]
  TGI: > 100 µM
[2]
  TGI: > 100 µM
[3]
  TGI: > 100 µM
[4]
  TGI: 80.4 µM
[5]
  TGI: > 100 µM
[6]
  TGI: > 100 µM
[7]
  TGI: 59.3 µM
[8]
  TGI: > 100 µM
[9]
  TGI: > 100 µM
[10]
  TGI: > 100 µM
[11]
  TGI: > 100 µM

## Cc1cc(Nc2ccc(Cl)cc2)nc(NCCCNc2ccnc3cc(Cl)ccc23)n1
[2]
  GI50: 1.84 µM
  TGI: 3.98 µM
[11]
  GI50: 1.83 µM
  TGI: 3.81 µM

## NC(Cc1ccccc1CP(=O)(O)O)C(=O)O (stereo unspecified)
[1]
  TGI: > 100 µM
[2]
  TGI: > 100 µM
[4]
  TGI: > 100 µM
[5]
  TGI: > 100 µM
[6]
  TGI: > 100 µM
[7]
  TGI: > 100 µM
[8]
  TGI: > 100 µM
[9]
  TGI: > 100 µM
[10]
  TGI: > 100 µM
[11]
  TGI: > 100 µM

## CC(C)=CCC/C(C)=C/C=C/C(C)=C/C1C[C@@]2(C(O)O1)[C@H](CCCO)/C(=C(/C)C=O)CC[C@]2(C)O (stereo partly specified)
[3]
  TGI: 22.6 µM
[7]
  TGI: 36.7 µM

## COc1cc2c(cc1OCCCOc1ccc(-c3cc4ccccc4c4ccccc34)cc1)N=C[C@@H]1CCCN1C2=O
[1]
  GI50: 0.278 µM
  TGI: 2.05 µM
[2]
  GI50: 0.645 µM
  TGI: 3.11 µM
[3]
  GI50: 1.4 µM
  TGI: 2.74 µM
[4]
  GI50: 0.172 µM
  TGI: 0.971 µM
[5]
  GI50: 0.343 µM
  TGI: 1.31 µM
[8]
  GI50: 0.716 µM
  TGI: 1.98 µM
[9]
  GI50: 0.252 µM
  TGI: 0.786 µM
[11]
  GI50: 0.0887 µM
  TGI: 0.598 µM

## CCOC(=O)c1csc(NC(=O)C(C)N2CCOCC2)n1 (stereo unspecified)
[3]
  TGI: > 100 µM
[4]
  TGI: > 100 µM
[5]
  TGI: > 100 µM
[6]
  TGI: > 100 µM
[8]
  TGI: > 100 µM
[9]
  TGI: > 100 µM
[10]
  TGI: > 100 µM
[11]
  TGI: > 100 µM

## COC(=O)C(NC(=O)c1ccccc1)C(c1c(O)cc(O)cc1O)P(=O)(OC)OC (stereo unspecified)
[7]
  TGI: > 100 µM
[10]
  TGI: > 100 µM

## COc1cc(/C=C2/Oc3c(OC)cccc3C2=O)ccc1O
[1]
  TGI: > 100 µM
[2]
  TGI: > 100 µM
[4]
  TGI: > 100 µM
[5]
  TGI: > 100 µM
[6]
  TGI: > 100 µM
[7]
  TGI: > 100 µM
[9]
  TGI: > 100 µM
[10]
  TGI: > 100 µM
